Experimental data: PubChem BioAssay (NCI)
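A five-concentration, 48-hour dose response in 96-well plates underlies each endpoint, interpolated linearly between surrounding concentrations. The concentration for full growth arrest is given as TGI.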

Key:
Assay in all cases: NCI tumour cell line growth inhibition, 48 h
TK-10 renal = system: TK-10 renal
EKVX NSCLC = system: EKVX NSCLC
CCRF-CEM leukemia = system: CCRF-CEM leukemia
SW-620 colon = system: SW-620 colon
CAKI-1 renal = system: CAKI-1 renal
T-47D breast = system: T-47D breast
KM12 colon = system: KM12 colon
OVCAR-4 ovarian = system: OVCAR-4 ovarian
HOP-92 NSCLC = system: HOP-92 NSCLC
DU-145 prostate = system: DU-145 prostate
HT29 colon = system: HT29 colon
UACC-257 melanoma = system: UACC-257 melanoma
HS 578T breast = system: HS 578T breast
SK-OV-3 ovarian = system: SK-OV-3 ovarian
PC-3 prostate = system: PC-3 prostate
MOLT-4 leukemia = system: MOLT-4 leukemia
SF-268 CNS = system: SF-268 CNS
SF-539 CNS = system: SF-539 CNS
NCI-H460 lung = system: NCI-H460 lung
OVCAR-8 ovarian = system: OVCAR-8 ovarian
SNB-75 CNS = system: SNB-75 CNS
OVCAR-5 ovarian = system: OVCAR-5 ovarian
IGROV1 ovarian = system: IGROV1 ovarian
HOP-62 NSCLC = system: HOP-62 NSCLC
HCC-2998 colon = system: HCC-2998 colon
MDA-MB-435 = system: MDA-MB-435
LOX IMVI melanoma = system: LOX IMVI melanoma
NCI/ADR-RES ovarian = system: NCI/ADR-RES ovarian
RXF 393 renal = system: RXF 393 renal
BT-549 breast = system: BT-549 breast
HCT-15 colon = system: HCT-15 colon
SR leukemia = system: SR leukemia
HCT-116 colon = system: HCT-116 colon
A498 renal = system: A498 renal
OVCAR-3 ovarian = system: OVCAR-3 ovarian
UACC-62 melanoma = system: UACC-62 melanoma
SK-MEL-2 melanoma = system: SK-MEL-2 melanoma
RPMI-8226 leukemia = system: RPMI-8226 leukemia
M14 melanoma = system: M14 melanoma
SK-MEL-28 melanoma = system: SK-MEL-28 melanoma
A549 NSCLC = system: A549 NSCLC
NCI-H226 lung = system: NCI-H226 lung
COLO 205 colon = system: COLO 205 colon
HL-60(TB) leukemia = system: HL-60(TB) leukemia
SF-295 CNS = system: SF-295 CNS
U251 CNS = system: U251 CNS
K-562 leukemia = system: K-562 leukemia
MDA-MB-231 breast = system: MDA-MB-231 breast
MALME-3M melanoma = system: MALME-3M melanoma
MCF7 breast = system: MCF7 breast
786-0 renal = system: 786-0 renal
SK-MEL-5 melanoma = system: SK-MEL-5 melanoma

Measured: TGI

O=[N+]([O-])c1cccnc1-n1cnc2ccccc21
> 100 µM: TK-10 renal | EKVX NSCLC | CCRF-CEM leukemia | SW-620 colon | CAKI-1 renal | T-47D breast | KM12 colon | OVCAR-4 ovarian | HOP-92 NSCLC | DU-145 prostate | HT29 colon | UACC-257 melanoma | HS 578T breast | SK-OV-3 ovarian | PC-3 prostate | MOLT-4 leukemia | SF-268 CNS | SF-539 CNS | NCI-H460 lung | OVCAR-8 ovarian | SNB-75 CNS | OVCAR-5 ovarian | IGROV1 ovarian | HOP-62 NSCLC | HCC-2998 colon | MDA-MB-435 | LOX IMVI melanoma | NCI/ADR-RES ovarian | RXF 393 renal | BT-549 breast | HCT-15 colon | SR leukemia | HCT-116 colon | A498 renal | OVCAR-3 ovarian | UACC-62 melanoma | SK-MEL-2 melanoma | RPMI-8226 leukemia | M14 melanoma | SK-MEL-28 melanoma | A549 NSCLC | NCI-H226 lung | COLO 205 colon | HL-60(TB) leukemia | SF-295 CNS | U251 CNS | K-562 leukemia | MDA-MB-231 breast | MALME-3M melanoma | MCF7 breast | 786-0 renal | SK-MEL-5 melanoma
